In ChEMBL document CHEMBL1909046, “DrugMatrix in vitro pharmacology data”:

Experiments:
[1] = molecular target: Aldo-keto reductase family 1 member B1 (Rattus norvegicus, UniProt P07943); assay: biochemical; assay type: tissue-based, Lens of camera-type eye;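 note: inhibition of aldose reductase enzyme activity, measured with DL-glyceraldehyde as the substrate; in other assays of this panel Not Active means under 50% inhibition at 10 µM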
[2] = molecular target: T1, Type-2 angiotensin II receptor (Homo sapiens, UniProt P50052); assay type: cell-based; conditions: cho-k1; note: in other assays of this panel Not Active means under 50% inhibition at 10 µM
T1 sequence (P50052 whole entry): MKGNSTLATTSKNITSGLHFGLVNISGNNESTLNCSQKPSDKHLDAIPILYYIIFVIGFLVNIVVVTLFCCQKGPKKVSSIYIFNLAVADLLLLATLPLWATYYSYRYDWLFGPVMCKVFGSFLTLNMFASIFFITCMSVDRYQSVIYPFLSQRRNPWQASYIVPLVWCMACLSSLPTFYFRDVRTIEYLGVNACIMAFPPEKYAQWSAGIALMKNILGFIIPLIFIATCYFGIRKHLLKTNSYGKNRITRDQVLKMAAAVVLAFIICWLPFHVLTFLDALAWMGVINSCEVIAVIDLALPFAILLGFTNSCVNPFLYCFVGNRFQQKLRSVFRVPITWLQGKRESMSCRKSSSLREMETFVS

Substance-K receptor = molecular target: T2, Substance-K receptor (Homo sapiens, UniProt P21452); assay type: cell membranes, CHO, Membrane; note: in other assays of this panel Not Active means under 50% inhibition at 10 µM
T2 sequence (P21452 whole entry): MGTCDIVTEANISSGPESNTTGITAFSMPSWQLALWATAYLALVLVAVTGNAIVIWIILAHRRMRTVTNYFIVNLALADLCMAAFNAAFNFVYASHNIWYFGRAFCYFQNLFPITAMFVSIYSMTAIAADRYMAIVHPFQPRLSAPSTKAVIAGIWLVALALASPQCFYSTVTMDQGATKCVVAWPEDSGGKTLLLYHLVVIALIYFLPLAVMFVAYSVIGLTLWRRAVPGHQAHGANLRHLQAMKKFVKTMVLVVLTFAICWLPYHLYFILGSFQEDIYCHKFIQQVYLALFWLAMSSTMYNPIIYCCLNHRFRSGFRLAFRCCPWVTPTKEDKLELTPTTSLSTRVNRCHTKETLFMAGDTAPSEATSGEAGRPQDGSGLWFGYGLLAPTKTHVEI

[3] = molecular target: T3, Cholecystokinin receptor type A (Homo sapiens, UniProt P32238); assay type: cell membranes, Membrane; conditions: 1321-n1; note: in other assays of this panel Not Active means under 50% inhibition at 10 µM
T3 sequence (P32238 whole entry): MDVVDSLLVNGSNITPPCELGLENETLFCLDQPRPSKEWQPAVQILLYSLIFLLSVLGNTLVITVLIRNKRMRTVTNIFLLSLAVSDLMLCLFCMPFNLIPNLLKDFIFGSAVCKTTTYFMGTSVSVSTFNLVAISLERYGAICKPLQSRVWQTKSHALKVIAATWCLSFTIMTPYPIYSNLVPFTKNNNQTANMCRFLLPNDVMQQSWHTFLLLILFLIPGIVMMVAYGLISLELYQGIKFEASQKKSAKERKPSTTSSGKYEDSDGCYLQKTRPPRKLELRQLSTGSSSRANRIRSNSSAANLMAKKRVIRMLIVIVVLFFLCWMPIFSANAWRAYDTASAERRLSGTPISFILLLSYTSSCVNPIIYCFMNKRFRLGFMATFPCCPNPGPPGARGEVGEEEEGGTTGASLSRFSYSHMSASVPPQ

Insulin receptor = Insulin receptor (Rattus norvegicus, UniProt P15127); assay type: cell membranes, Wistar, Liver, Membrane; note: in other assays of this panel Not Active means under 50% inhibition at 10 µM
Melanocortin receptor 4 = Melanocortin receptor 4 (Homo sapiens, UniProt P32245); assay type: cell membranes, Membrane; conditions: hek293; note: in other assays of this panel Not Active means under 50% inhibition at 10 µM
Mu-type opioid receptor = Mu-type opioid receptor (Homo sapiens, UniProt P35372); assay: DRUGMATRIX: Opiate mu (OP3, MOP) radioligand binding (ligand: [3H] Diprenorphine); assay type: cell membranes, CHO-K1, Membrane; conditions: cho-k1; Not Active = under 50% inhibition at 10 µM
Cytochrome P450 2D6 = Cytochrome P450 2D6 (Homo sapiens, UniProt P10635); conditions: bti-tn-5b1-4; note: in other assays of this panel Not Active means under 50% inhibition at 10 µM
Sequence of Cytochrome P450 2D6 (P10635 whole entry): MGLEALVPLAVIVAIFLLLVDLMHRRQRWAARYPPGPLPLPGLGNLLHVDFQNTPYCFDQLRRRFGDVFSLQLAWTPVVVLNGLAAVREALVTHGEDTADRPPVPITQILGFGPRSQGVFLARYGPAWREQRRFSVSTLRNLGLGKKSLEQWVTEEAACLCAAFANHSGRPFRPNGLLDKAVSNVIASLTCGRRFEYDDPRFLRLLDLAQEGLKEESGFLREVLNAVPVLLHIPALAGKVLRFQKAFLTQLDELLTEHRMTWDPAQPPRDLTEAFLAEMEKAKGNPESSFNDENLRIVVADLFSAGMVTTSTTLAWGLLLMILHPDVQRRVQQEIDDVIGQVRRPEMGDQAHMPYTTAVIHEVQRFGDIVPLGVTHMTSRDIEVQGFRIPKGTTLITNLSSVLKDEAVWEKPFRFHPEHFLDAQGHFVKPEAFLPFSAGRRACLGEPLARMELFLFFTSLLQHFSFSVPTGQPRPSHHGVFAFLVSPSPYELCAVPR

Sequence of Melanocortin receptor 4 (P32245 whole entry): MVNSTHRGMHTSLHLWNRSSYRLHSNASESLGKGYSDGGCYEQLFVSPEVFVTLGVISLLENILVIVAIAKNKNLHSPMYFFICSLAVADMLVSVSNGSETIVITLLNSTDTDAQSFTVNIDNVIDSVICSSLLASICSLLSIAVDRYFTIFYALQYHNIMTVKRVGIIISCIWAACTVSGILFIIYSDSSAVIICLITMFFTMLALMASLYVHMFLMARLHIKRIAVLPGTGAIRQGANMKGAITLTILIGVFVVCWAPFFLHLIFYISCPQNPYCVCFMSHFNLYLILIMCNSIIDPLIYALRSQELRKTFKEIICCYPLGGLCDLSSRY
Sequence of Insulin receptor (P15127 27-759 limits assumed): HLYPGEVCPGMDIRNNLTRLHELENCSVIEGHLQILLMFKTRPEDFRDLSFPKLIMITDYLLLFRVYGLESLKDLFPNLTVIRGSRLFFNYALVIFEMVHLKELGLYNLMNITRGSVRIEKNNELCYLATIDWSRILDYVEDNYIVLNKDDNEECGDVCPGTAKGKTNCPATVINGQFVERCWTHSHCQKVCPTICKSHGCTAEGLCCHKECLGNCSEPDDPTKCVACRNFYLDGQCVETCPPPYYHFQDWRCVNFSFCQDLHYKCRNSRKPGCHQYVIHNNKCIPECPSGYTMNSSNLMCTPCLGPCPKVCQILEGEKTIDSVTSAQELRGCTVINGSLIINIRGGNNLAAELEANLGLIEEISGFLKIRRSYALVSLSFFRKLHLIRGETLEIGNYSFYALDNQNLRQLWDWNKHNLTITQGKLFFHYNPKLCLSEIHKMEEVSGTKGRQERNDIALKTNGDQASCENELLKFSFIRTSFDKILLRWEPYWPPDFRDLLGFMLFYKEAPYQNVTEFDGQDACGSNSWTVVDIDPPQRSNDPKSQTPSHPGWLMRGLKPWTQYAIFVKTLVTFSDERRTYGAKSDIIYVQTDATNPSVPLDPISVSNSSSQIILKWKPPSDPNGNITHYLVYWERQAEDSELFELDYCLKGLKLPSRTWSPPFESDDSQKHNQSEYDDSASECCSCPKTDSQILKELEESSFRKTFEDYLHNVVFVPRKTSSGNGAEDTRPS
Sequence of Insulin receptor (P15127 764-1383 limits assumed): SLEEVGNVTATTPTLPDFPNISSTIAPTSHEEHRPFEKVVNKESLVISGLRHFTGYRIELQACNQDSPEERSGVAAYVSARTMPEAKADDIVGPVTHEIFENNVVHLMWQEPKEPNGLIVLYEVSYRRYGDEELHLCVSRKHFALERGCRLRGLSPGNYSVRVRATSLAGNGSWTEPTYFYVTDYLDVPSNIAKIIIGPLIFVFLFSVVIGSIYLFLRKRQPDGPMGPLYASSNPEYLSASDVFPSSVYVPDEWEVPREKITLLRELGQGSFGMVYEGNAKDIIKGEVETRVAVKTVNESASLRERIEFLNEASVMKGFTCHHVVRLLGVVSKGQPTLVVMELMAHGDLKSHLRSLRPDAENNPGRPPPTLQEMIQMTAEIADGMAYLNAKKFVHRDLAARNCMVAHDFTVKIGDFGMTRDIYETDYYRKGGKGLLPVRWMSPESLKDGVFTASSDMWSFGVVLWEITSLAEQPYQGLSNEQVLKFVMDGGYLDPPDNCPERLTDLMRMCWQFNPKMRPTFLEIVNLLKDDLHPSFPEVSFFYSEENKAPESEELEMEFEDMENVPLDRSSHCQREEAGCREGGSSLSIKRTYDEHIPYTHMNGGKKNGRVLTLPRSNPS
Sequence of Mu-type opioid receptor (P35372 whole entry): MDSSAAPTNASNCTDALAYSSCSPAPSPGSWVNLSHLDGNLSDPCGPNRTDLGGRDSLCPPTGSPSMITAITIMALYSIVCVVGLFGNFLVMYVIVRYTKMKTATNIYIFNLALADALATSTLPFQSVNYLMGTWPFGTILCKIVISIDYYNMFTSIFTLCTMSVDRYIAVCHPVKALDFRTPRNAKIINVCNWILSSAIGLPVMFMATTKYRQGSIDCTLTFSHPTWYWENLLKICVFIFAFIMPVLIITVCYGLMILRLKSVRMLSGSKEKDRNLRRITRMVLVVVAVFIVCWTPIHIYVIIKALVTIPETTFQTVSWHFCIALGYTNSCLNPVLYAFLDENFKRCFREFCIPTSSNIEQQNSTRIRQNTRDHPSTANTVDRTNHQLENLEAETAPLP

Compound | IC50 [1] | IC50 [2] | IC50 (Substance-K receptor; cho) | IC50 [3] | IC50 (Insulin receptor) | IC50 (Melanocortin receptor 4) | IC50 (Mu-type opioid receptor) | IC50 (Cytochrome P450 2D6) | Ki (Cytochrome P450 2D6) | IC50 (Substance-K receptor; read-out: IC50) [µM] | Ki (Substance-K receptor; read-out: Ki) [µM] | Ki [1] | Ki [2] | Ki (Substance-K receptor; cho) | Ki [3] | Ki (Insulin receptor) | Ki (Melanocortin receptor 4)
O=C1c2ccccc2C(=O)C1c1ccccc1 [PHENINDIONE] | Not Active | Not Active | Not Active | Not Active | Not Active | Not Active | Not Active | Not Active | Not Active | – | – | – | – | – | – | – | –
Clc1cc(Cl)c(OCC#CI)cc1Cl [HALOPROGIN] | Not Active | Not Active | – | Not Active | Not Active | Not Active | Not Active | Not Active | Not Active | 1.47 | 0.491 | – | – | – | – | – | –
C[C@H]1C[C@H]2[C@@H]3CCC4=CC(=O)C=C[C@]4(C)[C@@]3(F)[C@@H](O)C[C@]2(C)[C@@]1(O)C(=O)CO [BETAMETHASONE] | Not Active | Not Active | Not Active | Not Active | Not Active | Not Active | Not Active | – | – | – | – | – | – | – | – | – | –
COc1ccc(Cl)cc1C(=O)NCCc1ccc(S(=O)(=O)NC(=O)NC2CCCCC2)cc1 [GLYBURIDE] | Not Active | Not Active | Not Active | Not Active | Not Active | Not Active | Not Active | Not Active | Not Active | – | – | – | – | – | – | – | –
CC1(COc2ccc(CC3SC(=O)NC3=O)cc2)CCCCC1 (stereo not drawn) [CIGLITAZONE] | Not Active | Not Active | – | Not Active | Not Active | Not Active | Not Active | Not Active | Not Active | 12.6 | 4.19 | – | – | – | – | – | –
Cc1ccnc2c1NC(=O)c1cccnc1N2C1CC1 [NEVIRAPINE] | Not Active | Not Active | Not Active | Not Active | Not Active | Not Active | Not Active | Not Active | Not Active | – | – | – | – | – | – | – | –
CN(Cc1cc(Br)cc(Br)c1N)C1CCCCC1 [BROMHEXINE] | Not Active | Not Active | Not Active | Not Active | Not Active | Not Active | Not Active | – | – | – | – | – | – | – | – | – | –
COPPER(II) OXIDE | Not Active | Not Active | Not Active | Not Active | Not Active | Not Active | – | Not Active | Not Active | – | – | Not Active | Not Active | Not Active | Not Active | Not Active | Not Active
CCN1C[C@]2(COC)[C@H](O)C[C@H](OC)[C@@]34[C@@H]5C[C@@]6(O)[C@H](OC(=O)c7ccccc7)[C@@H]5[C@@](OC(C)=O)([C@@H]([C@H](OC)[C@H]23)[C@@H]14)[C@@H](O)[C@@H]6OC [ACONITINE] | Not Active | Not Active | Not Active | Not Active | Not Active | Not Active | – | Not Active | Not Active | – | – | – | – | – | – | – | –
ClC1=C(Cl)[C@]2(Cl)[C@@H]3[C@@H]4C[C@@H]([C@H]5O[C@@H]45)[C@@H]3[C@@]1(Cl)C2(Cl)Cl [DIELDRIN] | Not Active | Not Active | Not Active | Not Active | Not Active | Not Active | – | Not Active | Not Active | – | – | – | – | – | – | – | –
c1ccc(Cn2ccnc2)cc1 | Not Active | Not Active | Not Active | Not Active | Not Active | Not Active | Not Active | – | – | – | – | – | – | – | – | – | –
Nc1ccc(Cc2ccc(N)cc2)cc1 | Not Active | Not Active | Not Active | Not Active | Not Active | Not Active | – | Not Active | Not Active | – | – | – | – | – | – | – | –
O=C(O)CNCP(=O)(O)O [GLYPHOSATE] | Not Active | Not Active | Not Active | Not Active | Not Active | Not Active | – | – | – | – | – | – | – | – | – | – | –
CHROMIC CHLORIDE | Not Active | Not Active | Not Active | Not Active | Not Active | Not Active | – | Not Active | Not Active | – | – | Not Active | Not Active | Not Active | Not Active | Not Active | Not Active
C=CCO [ALLYL ALCOHOL] | Not Active | Not Active | Not Active | Not Active | Not Active | Not Active | – | Not Active | Not Active | – | – | – | – | – | – | – | –
CC(C)NCC(O)COc1ccc(CC(N)=O)cc1 (stereo not drawn) [ATENOLOL] | Not Active | Not Active | Not Active | Not Active | Not Active | Not Active | Not Active | – | – | – | – | – | – | – | – | – | –
CARBOXYMETHYLCELLULOSE | Not Active | Not Active | Not Active | Not Active | Not Active | Not Active | – | Not Active | Not Active | – | – | Not Active | Not Active | Not Active | Not Active | Not Active | Not Active
CCN(CCO)CCCC(C)Nc1ccnc2cc(Cl)ccc12 (stereo not drawn) [HYDROXYCHLOROQUINE] | Not Active | Not Active | Not Active | Not Active | Not Active | Not Active | Not Active | – | – | – | – | – | – | – | – | – | –
C=CCN1CC[C@]23c4c5ccc(O)c4O[C@H]2/C(=N/N=C2\CC[C@@]4(O)[C@H]6Cc7ccc(O)c8c7[C@@]4(CCN6CC=C)[C@H]2O8)CC[C@@]3(O)[C@H]1C5 [NALOXONAZINE] | Not Active | Not Active | Not Active | Not Active | Not Active | Not Active | – | Not Active | Not Active | – | – | – | – | – | – | – | –
POVIDONE | Not Active | Not Active | Not Active | Not Active | Not Active | Not Active | – | Not Active | Not Active | – | – | Not Active | Not Active | Not Active | Not Active | Not Active | Not Active
NS(=O)(=O)c1cc(C(=O)O)c(NCc2ccco2)cc1Cl [FUROSEMIDE] | Not Active | Not Active | Not Active | Not Active | Not Active | Not Active | Not Active | – | – | – | – | – | – | – | – | – | –
COc1cc([C@@H]2c3cc4c(cc3[C@H](O)[C@H]3COC(=O)[C@H]23)OCO4)cc(OC)c1OC [PODOFILOX] | Not Active | Not Active | Not Active | Not Active | Not Active | Not Active | – | Not Active | Not Active | – | – | – | – | – | – | – | –
CC(N)Cc1c[nH]c2ccc(OCc3cccs3)cc12 (stereo not drawn) [BW-723C86] | Not Active | Not Active | Not Active | Not Active | Not Active | Not Active | Not Active | – | – | – | – | – | – | – | – | – | –
CCCCCCNC(=O)n1cc(F)c(=O)[nH]c1=O [CARMOFUR] | Not Active | Not Active | Not Active | Not Active | Not Active | Not Active | Not Active | – | – | – | – | – | – | – | – | – | –
Cc1cc(C(C)(C)C)c(O)c(C)c1CC1=NCCN1 [OXYMETAZOLINE] | Not Active | Not Active | Not Active | Not Active | Not Active | Not Active | Not Active | – | – | – | – | – | – | – | – | – | –
C=C(Cl)Cl [1,1-DICHLOROETHENE] | Not Active | Not Active | Not Active | Not Active | Not Active | Not Active | – | Not Active | Not Active | – | – | – | – | – | – | – | –
